One assay concerns Serpula lacrymans. Briefly: Inhibition of hypha growth on malt extract agar, Serpula lacrymans. The following applies: read-out: Controlling effect (growth inhibition rate) SEL.
The test system of another assay is Rhizopus nigricans. Briefly: Inhibition of hypha growth on malt extract agar, Rhizopus nigricans. The following applies: Rhizopus stolonifer, read-out: Controlling effect (growth inhibition rate) RHS.
In a further assay the test system is Fusarium oxysporum. As to the kind of experiment: Inhibition of hypha growth on malt extract agar, Fusarium oxysporum. The following applies: read-out: Controlling effect (growth inhibition rate) FUO.
The next assay has as its system Alternaria mali. As to the kind of experiment: Inhibition of hypha growth on malt extract agar, Alternaria mali. The following applies: read-out: Controlling effect (growth inhibition rate) ALM.
The subject of the next assay is Phytophthora infestants. Briefly: whole plant or invertebrate. Particulars: 168 h; read-out: Controlling effect Pi (tomato late blight). The format is in vivo.
The subject of another assay is Coriolus versicolor. As to the kind of experiment: Inhibition of hypha growth on malt extract agar, Coriolus versicolor. The format is cell-based. The following applies: Trametes versicolor, 28±2° C., 2 to 10 days, read-out: Controlling effect (growth inhibition rate) COV.
In assay [1] the test system is Pseudoperonospora cubensis. Briefly: Controlling effect on cucumber Downy mildew. The following applies: 168 h, 200 ppm spray, inoculation after 24 hours, read-out: Controlling effect Pc (cucumber downy mildew). It counts as in vivo.
In assay [2] the test system is Cladosporium cladosporioides. As to the kind of experiment: Inhibition of hypha growth on malt extract agar, Cladosporium cladosporioides. The following applies: read-out: Controlling effect (growth inhibition rate) CLC.
Description: (§1) Each preparation to be tested was added to malt extract agar medium to adjust the concentration to 50 ppm, and the resulting mixture was dispensed into Petri dishes. As an inoculum, a prepared mycerial tuft of each test fungus was punched out together with agar by means of a 4-mm-diameter cork borer and inoculated on medium. The incubation temperature was adjusted to 28±2° .C (or 18±2° C. in the case of Selupula lacrymas).
(§2) The diameter of mycerial tuft was measured 2 to 10 days after the inoculation, and the inhibition rate of hypha growth (the following equation) was measured.
The test system of a further assay is Botrytis cinerea. As to the kind of experiment: Controlling effect (curing effect) on cucumber gray mold. The following applies: 72 h, immersion of inoculated cotyledons, 15° C., read-out: Controlling effect Bc (cucumber gray mold). The format is in vivo. The protocol: Controlling effect (curing effect) on cucumber gray mold The cotyledons of potted cucumber plants at the 1 leaf stage were cut off and each of them was inoculated with a mycelial tuft of gray mold fungus (Botrytis cinerea) cultured on PSA medium. After having been placed in a moist chamber at 15° C. for 24 hours, the cotyledons were immersed in a 200 ppm liquid chemical containing each compound of the present invention as active ingredient. […]

The next assay deals with Tyromyces palustris. Briefly: Inhibition of hypha growth on malt extract agar, Tyromyces palustris. The following applies: read-out: Controlling effect (growth inhibition rate) TYP.
The next assay deals with Chaetomium globosum. Briefly: Inhibition of hypha growth on malt extract agar, Chaetomium globosum. The following applies: read-out: Controlling effect (growth inhibition rate) CHG.
The test system of a further assay is Pyricularia oryzae. Briefly: whole plant or invertebrate. The format is in vivo. Particulars: 168 h, read-out: Controlling effect Ps (rice blast).
In another assay the test system is Aspergillus niger. Briefly: Inhibition of hypha growth on malt extract agar, Aspergillus niger. The following applies: read-out: Controlling effect (growth inhibition rate) ASN.
In another assay the test system is Trichoderma viride. Briefly: Inhibition of hypha growth on malt extract agar, Trichoderma viride. The following applies: read-out: Controlling effect (growth inhibition rate) TRV.

We go through 11 compounds from patent US5484934A, “Isothiazole derivatives, a process for production thereof and uses thereof” (Nihon Nohyaku Co., Ltd., priority 1992, dated 1996).

Description for Alternaria mali: as §1, §2
(§3) The controlling effect was evaluated according to the following criterion.
Description for Aspergillus niger: as §1, §2, §3
Description for Chaetomium globosum: as §1, §2, §3
Description for Fusarium oxysporum: as §1, §2, §3
Description for Serpula lacrymans: as §1, §2
Description for Tyromyces palustris: as §1, §2

As usually defined, the inhibition is the share of the control response that was lost under treatment. For the compound `COc1nsc(S(=O)(=O)c2ccccc2)c1C#N` [Compound 89, 3-methoxy-4-cyano-5-phenylsulfonylisothiazole], the inhibition at 50 ppm (in the assay with Serpula lacrymans; in the assay on Rhizopus nigricans; in the assay on Fusarium oxysporum; with Alternaria mali; in the assay with Coriolus versicolor; in assay [2]) was 100% each time. Besides, the inhibition at 50 ppm with Tyromyces palustris, with Chaetomium globosum, with Aspergillus niger and with Trichoderma viride was 100% each time. Also, the pest or weed control at 200 ppm was 95 to 100% in the assay on Phytophthora infestants, 80 to 94% in [1], 60 to 79% in the assay with Botrytis cinerea and 95 to 100% in the assay on Pyricularia oryzae.

`C#CCOc1nsc(S(=O)(=O)CCOCC)c1C#N` [Compound 82]: the inhibition at 50 ppm (in the assay on Serpula lacrymans; in the assay with Rhizopus nigricans; with Fusarium oxysporum; with Alternaria mali; in the assay on Coriolus versicolor; in [2]) was 100% each time. The inhibition at 50 ppm with Tyromyces palustris, with Chaetomium globosum, in the assay with Aspergillus niger and in the assay with Trichoderma viride was 100% in each case. The pest or weed control at 200 ppm with Phytophthora infestants was in the range of 95 to 100%; in [1], 95 to 100%; in the assay with Botrytis cinerea it was 60 to 79%; in the assay with Pyricularia oryzae, 95 to 100%.

Consider `CC(C)Oc1nsc(S(=O)(=O)C(F)F)c1C#N` [Compound 144], for which the inhibition at 50 ppm (with Serpula lacrymans; in the assay on Rhizopus nigricans; with Fusarium oxysporum; with Alternaria mali; in the assay with Coriolus versicolor; in assay [2]) was 100% each time. For the same compound, the inhibition at 50 ppm in the assay with Tyromyces palustris, in the assay with Chaetomium globosum, in the assay on Aspergillus niger and with Trichoderma viride was 100% in each case. Also, the pest or weed control at 200 ppm (in the assay with Phytophthora infestants; in assay [1]; with Botrytis cinerea; with Pyricularia oryzae) was 95 to 100% in each case.

As for `CC(C)Oc1nsc(S(C)(=O)=O)c1C#N` [Compound 50], the inhibition at 50 ppm (in the assay with Serpula lacrymans; in the assay on Rhizopus nigricans; with Fusarium oxysporum; in the assay with Alternaria mali; in the assay on Coriolus versicolor; in [2]) was 100% each time. Also, the inhibition at 50 ppm with Tyromyces palustris, with Chaetomium globosum, in the assay with Aspergillus niger and with Trichoderma viride was 100% each time. The pest or weed control at 200 ppm in the assay with Phytophthora infestants lay in the range of 80 to 94%; in [1], 95 to 100%; in the assay with Botrytis cinerea, 0 to 59%; in the assay with Pyricularia oryzae it was 80 to 94%.

`C=CCOc1nsc(S(C)(=O)=O)c1C#N` [Compound 22]: the inhibition at 50 ppm is 100% in the assay on Serpula lacrymans; 85 to 99% in the assay with Rhizopus nigricans; 85 to 99% with Fusarium oxysporum; 85 to 99% in the assay on Alternaria mali; 100% in the assay with Coriolus versicolor; 100% in [2]. Moreover, the inhibition at 50 ppm is 100% in the assay on Tyromyces palustris, 55 to 84% with Chaetomium globosum, 85 to 99% in the assay with Aspergillus niger and 85 to 99% in the assay with Trichoderma viride. In addition, the pest or weed control at 200 ppm lay within 95 to 100% in the assay on Phytophthora infestants, 80 to 94% in assay [1], 0 to 59% in the assay on Botrytis cinerea and 95 to 100% in the assay on Pyricularia oryzae.

Take `COc1nsc(S(=O)(=O)C(F)F)c1C#N` [Compound 140]: the inhibition at 50 ppm (in the assay with Serpula lacrymans; in the assay on Rhizopus nigricans; in the assay on Fusarium oxysporum; in the assay on Alternaria mali; in the assay on Coriolus versicolor; in [2]) was 100% throughout. Moreover, the inhibition at 50 ppm with Tyromyces palustris, in the assay on Chaetomium globosum, with Aspergillus niger and with Trichoderma viride was 100% in each case. In addition, the pest or weed control at 200 ppm (in the assay on Phytophthora infestants; in assay [1]; in the assay on Botrytis cinerea; in the assay with Pyricularia oryzae) was 95 to 100% throughout.

Turning to `N#Cc1c(O)nsc1S(=O)(=O)c1ccccc1` [Compound 1, 3-hydroxy-4-cyano-5-phenylsulfonylisothiazole], the inhibition at 50 ppm with Serpula lacrymans lay in the range of 85 to 99%; with Rhizopus nigricans it was 85 to 99%; with Fusarium oxysporum, 55 to 84%; in the assay with Alternaria mali, 55 to 84%; in the assay on Coriolus versicolor, 85 to 99%; in assay [2], 55 to 84%. Moreover, the inhibition at 50 ppm in the assay on Tyromyces palustris fell in the range of 55 to 84%; in the assay with Chaetomium globosum it was 85 to 99%; in the assay on Aspergillus niger, 55 to 84%; in the assay with Trichoderma viride, 85 to 99%. In addition, the pest or weed control at 200 ppm fell in the range of 60 to 79% in the assay with Phytophthora infestants, 60 to 79% in assay [1], 0 to 59% in the assay on Botrytis cinerea and 80 to 94% in the assay on Pyricularia oryzae.

For the compound `COc1nsc(S(=O)(=O)c2ccc(Cl)cc2)c1C#N` [Compound 93], the inhibition at 50 ppm (with Serpula lacrymans; in the assay on Rhizopus nigricans; in the assay on Fusarium oxysporum; in the assay on Alternaria mali; in the assay with Coriolus versicolor; in [2]) was 100% throughout. The inhibition at 50 ppm in the assay on Tyromyces palustris, in the assay on Chaetomium globosum, in the assay with Aspergillus niger and in the assay with Trichoderma viride was 100% throughout. Further, the pest or weed control at 200 ppm in the assay with Phytophthora infestants is 95 to 100%; in [1], 95 to 100%; in the assay with Botrytis cinerea it was 60 to 79%; in the assay with Pyricularia oryzae, 95 to 100%.

As for `C#CCOc1nsc([S+](C)[O-])c1C#N` (stereo not shown) [Compound 16], the inhibition at 50 ppm in the assay with Serpula lacrymans is 100%; with Rhizopus nigricans it was 100%; with Fusarium oxysporum, 85 to 99%; with Alternaria mali, 100%; in the assay with Coriolus versicolor it was 85 to 99%; in assay [2], 100%. The inhibition at 50 ppm in the assay with Tyromyces palustris, in the assay on Chaetomium globosum, in the assay with Aspergillus niger and in the assay on Trichoderma viride was 100% in each case. For the same compound, the pest or weed control at 200 ppm with Phytophthora infestants lay in the range of 95 to 100%; in assay [1], 95 to 100%; with Botrytis cinerea it was 60 to 79%; in the assay on Pyricularia oryzae, 80 to 94%.

Consider `COc1nsc([S+](C)[O-])c1C#N` (stereo not shown) [Compound 15, 3-methoxy-4-cyano-5-methylsulfoxyisothiazole], for which the inhibition at 50 ppm (with Serpula lacrymans; in the assay with Rhizopus nigricans; in the assay with Fusarium oxysporum; in the assay on Alternaria mali; in the assay with Coriolus versicolor; in assay [2]) was 100% in each case. Also, the inhibition at 50 ppm with Tyromyces palustris, in the assay with Chaetomium globosum, with Aspergillus niger and with Trichoderma viride was 100% each time. Also, the pest or weed control at 200 ppm in the assay on Phytophthora infestants was 95 to 100%; in [1] it was 95 to 100%; in the assay on Botrytis cinerea, 60 to 79%; with Pyricularia oryzae, 95 to 100%.

As to `C#CCOc1nsc(S(=O)(=O)C(F)F)c1C#N` [Compound 148], the inhibition at 50 ppm (in the assay with Serpula lacrymans; in the assay on Rhizopus nigricans; in the assay on Fusarium oxysporum; in the assay with Alternaria mali; with Coriolus versicolor; in assay [2]) was 100% throughout. In addition, the inhibition at 50 ppm in the assay with Tyromyces palustris, with Chaetomium globosum, in the assay on Aspergillus niger and in the assay with Trichoderma viride was 100% each time. For the same compound, the pest or weed control at 200 ppm fell in the range of 95 to 100% in the assay on Phytophthora infestants, 80 to 94% in [1], 60 to 79% in the assay on Botrytis cinerea and 95 to 100% with Pyricularia oryzae.
